From ChEMBL document CHEMBL1909046, “DrugMatrix in vitro pharmacology data” come the findings set out here.

Molecules are shown by their SMILES.

Data set [1] has as its target Sodium-dependent noradrenaline transporter (Homo sapiens, UniProt P23975). The experiment in a line: DRUGMATRIX: Norepinephrine Transporter radioligand binding (ligand: [125I] RTI-55). The data set is classed as cell membranes, MDCK, Membrane. To be noted: mdck; Not Active = under 50% inhibition at 10 µM.
A further data set concerns the target T1, Calcitonin receptor (Homo sapiens, UniProt P30988). Further: in other assays of this panel Not Active means under 50% inhibition at 10 µM.
T1 sequence (P30988 whole entry): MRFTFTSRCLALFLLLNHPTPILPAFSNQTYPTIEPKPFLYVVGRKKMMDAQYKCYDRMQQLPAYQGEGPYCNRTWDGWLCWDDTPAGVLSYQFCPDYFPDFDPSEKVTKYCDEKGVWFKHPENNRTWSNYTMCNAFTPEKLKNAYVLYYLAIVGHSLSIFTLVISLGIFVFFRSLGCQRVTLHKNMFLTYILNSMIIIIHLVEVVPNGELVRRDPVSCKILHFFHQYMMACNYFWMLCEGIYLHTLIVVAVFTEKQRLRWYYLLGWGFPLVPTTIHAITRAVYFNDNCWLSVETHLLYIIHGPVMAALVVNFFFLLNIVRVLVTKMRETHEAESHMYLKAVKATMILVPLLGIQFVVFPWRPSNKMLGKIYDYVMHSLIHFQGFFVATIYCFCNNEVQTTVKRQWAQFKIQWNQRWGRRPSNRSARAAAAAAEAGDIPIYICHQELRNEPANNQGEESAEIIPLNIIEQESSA
The data set is classed as cell membranes, Membrane. To be noted: t47d.

The target of data set [2] is Sigma non-opioid intracellular receptor 1 (Homo sapiens, UniProt Q99720). The experiment in a line: DRUGMATRIX: Sigma1 radioligand binding (ligand: [3H] Haloperidol). To be noted: jurkat; Not Active = under 50% inhibition at 10 µM. The data set is classed as cell membranes, Jurkat, Membrane.
Data set [3] has as its target T2, C-X-C chemokine receptor type 2 (Homo sapiens, UniProt P25025). Further: in other assays of this panel Not Active means under 50% inhibition at 10 µM.
T2 sequence (P25025 whole entry): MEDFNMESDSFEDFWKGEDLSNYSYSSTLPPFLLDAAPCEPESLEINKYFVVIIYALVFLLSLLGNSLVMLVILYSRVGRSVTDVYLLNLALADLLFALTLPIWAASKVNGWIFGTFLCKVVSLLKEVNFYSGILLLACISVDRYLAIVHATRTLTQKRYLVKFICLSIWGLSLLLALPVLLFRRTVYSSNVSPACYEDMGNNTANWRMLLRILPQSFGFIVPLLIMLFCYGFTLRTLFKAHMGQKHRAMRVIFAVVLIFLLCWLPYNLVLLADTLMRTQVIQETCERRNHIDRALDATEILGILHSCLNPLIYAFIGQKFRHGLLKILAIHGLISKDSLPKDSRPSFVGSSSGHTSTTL
The data set is classed as cell membranes, Membrane. To be noted: cho-k1.

Another data set concerns the target D(3) dopamine receptor (Homo sapiens, UniProt P35462). The experiment in a line: DRUGMATRIX: Dopamine D3 radioligand binding (ligand: [3H] Spiperone). The data set is classed as cell membranes, CHO, Membrane. To be noted: cho.
A short description of data set [4]: DRUGMATRIX: GABAA, Chloride Channel, TBOB radioligand binding (ligand: [3H] TBOB). To be noted: Not Active = under 50% inhibition at 10 µM. The data set is classed as cell membranes, Rattus norvegicus, Wistar, Cerebral cortex, Membrane.
The next data set concerns the target Melanocortin receptor 3 (Homo sapiens, UniProt P41968). The data set is classed as cell membranes, Membrane. To be noted: hek293. Further: in other assays of this panel Not Active means under 50% inhibition at 10 µM.
Data set [5] addresses Platelet-activating factor receptor (Homo sapiens, UniProt P25105). The experiment in a line: biochemical. The data set is classed as tissue-based. To be noted: platelet.
Data set [6] deals with Mitogen-activated protein kinase 1 (Homo sapiens, UniProt P28482). The experiment in a line: DRUGMATRIX: Protein Serine/Threonine Kinase, ERK2 enzyme inhibition (substrate: Myelin Basic Protein). To be noted: Not Active = under 50% inhibition at 10 µM. More on the design: species or system Escherichia coli.
Data set [7] has as its target Mitogen-activated protein kinase 14 (Homo sapiens, UniProt Q16539). More on the design: species or system Escherichia coli.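 Further: inhibition of p38alpha enzyme activity in a biochemical kinase assay, with myelin basic protein serving as substrate; in other assays of this panel Not Active means under 50% inhibition at 10 µM.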
A further data set deals with T3, Cytochrome P450 1A2 (Homo sapiens, UniProt P05177).
T3 sequence (P05177 whole entry): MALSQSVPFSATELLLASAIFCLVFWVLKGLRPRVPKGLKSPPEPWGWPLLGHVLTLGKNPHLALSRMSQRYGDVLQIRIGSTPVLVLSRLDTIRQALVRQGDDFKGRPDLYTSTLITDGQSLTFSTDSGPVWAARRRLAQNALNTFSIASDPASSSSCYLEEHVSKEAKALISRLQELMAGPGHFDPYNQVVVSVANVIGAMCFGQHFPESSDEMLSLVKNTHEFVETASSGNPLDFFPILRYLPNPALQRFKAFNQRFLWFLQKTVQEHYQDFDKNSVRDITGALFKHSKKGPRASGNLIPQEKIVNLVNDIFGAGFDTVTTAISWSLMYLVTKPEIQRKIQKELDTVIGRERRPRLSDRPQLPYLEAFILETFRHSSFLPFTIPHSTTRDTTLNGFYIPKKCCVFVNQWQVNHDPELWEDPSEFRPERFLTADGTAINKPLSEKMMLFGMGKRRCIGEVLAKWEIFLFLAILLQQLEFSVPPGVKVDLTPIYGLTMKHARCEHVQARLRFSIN
To be noted: bti-tn-5b1-4.

Another data set deals with Cytochrome P450 2C19 (Homo sapiens, UniProt P33261). To be noted: bti-tn-5b1-4.
Another data set addresses Cytochrome P450 2C9 (Homo sapiens, UniProt P11712). To be noted: bti-tn-5b1-4.
A further data set concerns the target Cytochrome P450 2D6 (Homo sapiens, UniProt P10635). To be noted: bti-tn-5b1-4. Further: in other assays of this panel Not Active means under 50% inhibition at 10 µM.
In the next data set the target is Cytochrome P450 2E1 (Homo sapiens, UniProt P05181). To be noted: bti-tn-5b1-4. Further: in other assays of this panel Not Active means under 50% inhibition at 10 µM.
The target of the next data set is Estrogen receptor beta (Homo sapiens, UniProt Q92731). To be noted: sf9. Further: in other assays of this panel Not Active means under 50% inhibition at 10 µM.
Data set [8] concerns the target Voltage-gated inwardly rectifying potassium channel KCNH2 (Homo sapiens, UniProt Q12809). To be noted: hek293. Further: in other assays of this panel Not Active means under 50% inhibition at 10 µM.

Sequence of Sigma non-opioid intracellular receptor 1 (Q99720 whole entry): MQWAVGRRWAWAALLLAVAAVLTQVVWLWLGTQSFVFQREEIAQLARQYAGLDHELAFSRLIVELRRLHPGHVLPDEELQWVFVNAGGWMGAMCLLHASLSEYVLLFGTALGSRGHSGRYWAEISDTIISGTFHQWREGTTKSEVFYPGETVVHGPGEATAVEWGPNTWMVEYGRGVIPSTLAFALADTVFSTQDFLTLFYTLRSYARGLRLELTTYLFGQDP
Sequence of Melanocortin receptor 3 (P41968 whole entry): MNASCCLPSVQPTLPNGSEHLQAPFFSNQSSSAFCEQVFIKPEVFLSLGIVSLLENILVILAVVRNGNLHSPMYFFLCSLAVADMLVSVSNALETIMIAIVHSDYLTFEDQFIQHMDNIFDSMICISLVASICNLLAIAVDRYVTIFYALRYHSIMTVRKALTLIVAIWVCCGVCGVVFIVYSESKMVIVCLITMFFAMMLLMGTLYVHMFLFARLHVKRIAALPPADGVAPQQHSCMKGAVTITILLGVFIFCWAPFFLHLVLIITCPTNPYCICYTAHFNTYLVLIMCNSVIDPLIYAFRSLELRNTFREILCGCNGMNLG
Sequence of Mitogen-activated protein kinase 1 (P28482 whole entry): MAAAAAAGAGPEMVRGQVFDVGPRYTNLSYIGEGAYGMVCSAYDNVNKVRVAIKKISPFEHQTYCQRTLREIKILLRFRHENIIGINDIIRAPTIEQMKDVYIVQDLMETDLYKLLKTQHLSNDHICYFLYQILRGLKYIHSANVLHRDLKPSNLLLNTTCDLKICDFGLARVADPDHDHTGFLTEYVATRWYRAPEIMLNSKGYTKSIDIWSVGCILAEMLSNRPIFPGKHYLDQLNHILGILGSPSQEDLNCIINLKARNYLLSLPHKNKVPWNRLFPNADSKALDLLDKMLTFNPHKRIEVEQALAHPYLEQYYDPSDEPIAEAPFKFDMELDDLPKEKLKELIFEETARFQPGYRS
Sequence of Cytochrome P450 2D6 (P10635 whole entry): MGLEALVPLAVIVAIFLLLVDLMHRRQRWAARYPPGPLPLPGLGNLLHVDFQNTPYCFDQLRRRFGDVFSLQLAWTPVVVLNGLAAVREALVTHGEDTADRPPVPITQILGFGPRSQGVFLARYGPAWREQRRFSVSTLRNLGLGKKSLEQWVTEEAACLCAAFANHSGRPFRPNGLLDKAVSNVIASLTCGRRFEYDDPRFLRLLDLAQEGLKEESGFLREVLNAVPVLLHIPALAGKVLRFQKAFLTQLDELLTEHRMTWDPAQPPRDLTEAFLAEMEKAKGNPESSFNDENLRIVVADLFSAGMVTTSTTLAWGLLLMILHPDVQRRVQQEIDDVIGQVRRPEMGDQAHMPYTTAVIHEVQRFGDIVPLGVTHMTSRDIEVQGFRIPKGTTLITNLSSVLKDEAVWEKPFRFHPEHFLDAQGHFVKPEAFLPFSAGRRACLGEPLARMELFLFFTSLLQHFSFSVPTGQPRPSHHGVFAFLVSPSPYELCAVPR
Sequence of D(3) dopamine receptor (P35462 whole entry): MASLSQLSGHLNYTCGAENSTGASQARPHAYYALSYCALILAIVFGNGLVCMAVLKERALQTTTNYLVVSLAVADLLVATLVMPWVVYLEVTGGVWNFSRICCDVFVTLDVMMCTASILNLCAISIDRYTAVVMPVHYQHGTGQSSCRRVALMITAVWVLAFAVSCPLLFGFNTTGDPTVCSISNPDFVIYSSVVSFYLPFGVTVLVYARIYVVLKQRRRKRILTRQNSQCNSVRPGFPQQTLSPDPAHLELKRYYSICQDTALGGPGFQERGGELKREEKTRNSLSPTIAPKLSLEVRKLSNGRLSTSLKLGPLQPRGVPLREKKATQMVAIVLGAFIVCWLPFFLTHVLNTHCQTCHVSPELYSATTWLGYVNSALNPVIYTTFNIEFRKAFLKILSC
Sequence of Cytochrome P450 2E1 (P05181 whole entry): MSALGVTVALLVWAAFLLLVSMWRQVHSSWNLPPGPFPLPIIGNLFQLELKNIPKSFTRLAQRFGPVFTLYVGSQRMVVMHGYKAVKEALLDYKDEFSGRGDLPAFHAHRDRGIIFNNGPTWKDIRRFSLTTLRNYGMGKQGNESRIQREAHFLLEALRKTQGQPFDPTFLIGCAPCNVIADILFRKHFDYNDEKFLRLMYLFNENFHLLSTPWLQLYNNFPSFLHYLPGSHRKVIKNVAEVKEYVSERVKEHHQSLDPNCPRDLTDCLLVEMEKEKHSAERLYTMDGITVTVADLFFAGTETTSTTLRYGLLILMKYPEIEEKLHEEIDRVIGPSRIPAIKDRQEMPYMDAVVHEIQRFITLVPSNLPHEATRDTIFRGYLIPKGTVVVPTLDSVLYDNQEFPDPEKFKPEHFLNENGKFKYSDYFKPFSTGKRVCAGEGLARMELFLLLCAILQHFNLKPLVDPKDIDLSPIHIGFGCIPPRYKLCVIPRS
Sequence of Cytochrome P450 2C19 (P33261 whole entry): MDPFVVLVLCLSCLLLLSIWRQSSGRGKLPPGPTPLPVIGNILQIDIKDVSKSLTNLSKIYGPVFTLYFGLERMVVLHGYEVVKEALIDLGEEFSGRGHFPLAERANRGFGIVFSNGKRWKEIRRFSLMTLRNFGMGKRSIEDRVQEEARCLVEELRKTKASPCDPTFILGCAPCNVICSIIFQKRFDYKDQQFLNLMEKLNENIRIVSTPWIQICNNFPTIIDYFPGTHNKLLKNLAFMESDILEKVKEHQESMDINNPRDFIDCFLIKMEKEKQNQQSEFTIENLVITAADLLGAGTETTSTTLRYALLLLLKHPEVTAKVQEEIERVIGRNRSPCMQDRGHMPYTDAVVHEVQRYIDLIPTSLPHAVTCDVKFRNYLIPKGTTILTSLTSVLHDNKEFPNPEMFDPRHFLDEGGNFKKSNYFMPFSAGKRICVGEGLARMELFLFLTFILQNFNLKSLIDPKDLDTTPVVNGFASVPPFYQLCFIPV
Sequence of Voltage-gated inwardly rectifying potassium channel KCNH2 (Q12809 whole entry): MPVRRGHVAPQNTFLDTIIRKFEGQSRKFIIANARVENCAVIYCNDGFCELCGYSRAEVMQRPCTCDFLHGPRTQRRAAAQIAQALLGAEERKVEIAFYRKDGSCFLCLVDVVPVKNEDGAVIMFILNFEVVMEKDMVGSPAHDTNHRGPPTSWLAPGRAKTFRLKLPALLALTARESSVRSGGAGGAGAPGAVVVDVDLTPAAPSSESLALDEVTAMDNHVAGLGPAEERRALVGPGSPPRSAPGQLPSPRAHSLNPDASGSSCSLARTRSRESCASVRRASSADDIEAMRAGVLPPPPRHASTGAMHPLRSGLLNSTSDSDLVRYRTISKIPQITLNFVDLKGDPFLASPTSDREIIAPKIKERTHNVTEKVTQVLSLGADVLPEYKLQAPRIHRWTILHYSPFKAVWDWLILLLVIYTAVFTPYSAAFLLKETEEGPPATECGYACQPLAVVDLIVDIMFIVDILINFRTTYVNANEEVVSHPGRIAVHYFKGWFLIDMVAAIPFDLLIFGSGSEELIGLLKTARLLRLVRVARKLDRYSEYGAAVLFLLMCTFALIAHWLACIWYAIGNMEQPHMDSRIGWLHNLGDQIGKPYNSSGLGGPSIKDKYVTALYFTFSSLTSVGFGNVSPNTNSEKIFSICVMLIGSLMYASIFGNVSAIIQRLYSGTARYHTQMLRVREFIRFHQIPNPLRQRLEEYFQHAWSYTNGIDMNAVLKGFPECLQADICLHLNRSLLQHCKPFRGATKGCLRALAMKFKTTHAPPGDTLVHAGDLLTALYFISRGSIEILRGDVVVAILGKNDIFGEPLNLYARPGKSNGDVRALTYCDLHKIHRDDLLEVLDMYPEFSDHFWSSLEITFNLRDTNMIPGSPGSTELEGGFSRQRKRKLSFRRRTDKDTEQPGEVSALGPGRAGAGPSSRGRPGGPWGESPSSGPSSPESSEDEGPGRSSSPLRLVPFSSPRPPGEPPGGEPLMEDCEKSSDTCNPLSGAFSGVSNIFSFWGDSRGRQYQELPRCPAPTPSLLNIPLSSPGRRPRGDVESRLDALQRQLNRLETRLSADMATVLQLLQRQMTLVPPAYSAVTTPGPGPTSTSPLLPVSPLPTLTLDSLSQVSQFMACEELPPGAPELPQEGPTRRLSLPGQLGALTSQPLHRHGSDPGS
Sequence of Cytochrome P450 2C9 (P11712 whole entry): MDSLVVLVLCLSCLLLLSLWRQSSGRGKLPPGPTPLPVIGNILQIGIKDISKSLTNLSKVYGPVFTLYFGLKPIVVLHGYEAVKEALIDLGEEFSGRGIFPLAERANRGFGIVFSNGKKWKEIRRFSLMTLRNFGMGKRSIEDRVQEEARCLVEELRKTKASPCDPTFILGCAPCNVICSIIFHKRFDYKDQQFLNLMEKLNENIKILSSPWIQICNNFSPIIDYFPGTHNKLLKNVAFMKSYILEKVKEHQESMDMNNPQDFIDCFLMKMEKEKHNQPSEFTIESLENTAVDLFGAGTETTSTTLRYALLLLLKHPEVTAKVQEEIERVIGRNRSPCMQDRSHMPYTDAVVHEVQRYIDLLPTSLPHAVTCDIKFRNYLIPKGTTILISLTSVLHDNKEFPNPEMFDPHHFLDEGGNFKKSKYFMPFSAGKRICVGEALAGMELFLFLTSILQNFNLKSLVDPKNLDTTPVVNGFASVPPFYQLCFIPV
Sequence of Mitogen-activated protein kinase 14 (Q16539 whole entry): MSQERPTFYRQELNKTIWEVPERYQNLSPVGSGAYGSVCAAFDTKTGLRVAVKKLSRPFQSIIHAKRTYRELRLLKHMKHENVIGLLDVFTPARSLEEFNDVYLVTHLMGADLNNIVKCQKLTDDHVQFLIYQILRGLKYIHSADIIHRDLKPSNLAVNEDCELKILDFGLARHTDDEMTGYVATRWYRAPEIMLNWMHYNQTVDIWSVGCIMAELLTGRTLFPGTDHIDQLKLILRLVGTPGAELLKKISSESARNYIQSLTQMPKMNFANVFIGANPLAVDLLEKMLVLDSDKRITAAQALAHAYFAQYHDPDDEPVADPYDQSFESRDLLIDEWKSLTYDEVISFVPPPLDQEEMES

For orientation: IC50 means the concentration at which inhibition is half-maximal. For the compound `CCOC(=O)[C@H](CCc1ccccc1)N[C@@H](C)C(=O)N1[C@H](C(=O)O)C[C@@H]2CCC[C@@H]21`, the IC50 result (in data set [1]; on Calcitonin receptor; in data set [2]; in data set [3]; at D(3) dopamine receptor; in data set [4]) was “Not Active” in each case. The half-inhibitory concentration (IC50) entry (at Melanocortin receptor 3; in data set [5]; in [6]; in data set [7]; against Cytochrome P450 1A2; at Cytochrome P450 2C19) was “Not Active” throughout. The IC50 entry (against Cytochrome P450 2C9; against Cytochrome P450 2D6; on Cytochrome P450 2E1; at Estrogen receptor beta; in data set [8]) was “Not Active” in each case. Also, the Ki entry (in [4]; at Cytochrome P450 1A2; at Cytochrome P450 2C19; on Cytochrome P450 2C9; on Cytochrome P450 2D6; at Cytochrome P450 2E1) was “Not Active” in each case. In addition, the Ki result in data set [8] is listed as “Not Active”.

With `CC1(C)[C@H]2CC[C@]1(C)C(=O)C2` [(-)-CAMPHOR], the IC50 result (in data set [1]; at Calcitonin receptor; in data set [2]; in data set [3]; at D(3) dopamine receptor; in data set [4]) was “Not Active” throughout. In addition, the IC50 entry (against Melanocortin receptor 3; in data set [5]; in data set [6]; in data set [7]; against Cytochrome P450 1A2; against Cytochrome P450 2C19) was “Not Active” in each case. The IC50 result (against Cytochrome P450 2C9; against Cytochrome P450 2D6; at Cytochrome P450 2E1; against Estrogen receptor beta; in data set [8]) was “Not Active” in each case. Besides, the Ki entry (in data set [4]; on Cytochrome P450 1A2; at Cytochrome P450 2C19; at Cytochrome P450 2C9; on Cytochrome P450 2D6; on Cytochrome P450 2E1) was “Not Active” each time. Besides, in data set [8], the Ki entry is on record as “Not Active”.

In the case of `CC(C)(C)NCC(O)c1ccc(O)c(CO)c1` (stereo not drawn) [ALBUTEROL], the IC50 entry (in data set [1]; at Calcitonin receptor; in data set [2]; in data set [3]; on D(3) dopamine receptor; in data set [4]) was “Not Active” each time. Moreover, the IC50 entry (against Melanocortin receptor 3; in [5]; in data set [6]; in data set [7]; on Cytochrome P450 1A2; against Cytochrome P450 2C19) was “Not Active” each time. Further, the IC50 result (against Cytochrome P450 2C9; at Cytochrome P450 2D6; at Cytochrome P450 2E1; against Estrogen receptor beta; in data set [8]) was “Not Active” in each case. Also, the Ki entry (in data set [4]; on Cytochrome P450 1A2; on Cytochrome P450 2C19; at Cytochrome P450 2C9; at Cytochrome P450 2D6; at Cytochrome P450 2E1) was “Not Active” each time. Also, the Ki result in data set [8] is “Not Active”.

For the compound `Oc1c(I)cc(I)c2cccnc12` [IODOQUINOL], the IC50 result (in data set [1]; on Calcitonin receptor; in data set [2]; in [3]; at D(3) dopamine receptor; in data set [4]) was “Not Active” in each case. Further, the IC50 result is “Not Active” on Melanocortin receptor 3; “Not Active” in [5]; 294 nM in data set [6] (read-out: IC50); 364 nM in data set [7] (read-out: IC50); “Not Active” against Cytochrome P450 1A2; “Not Active” on Cytochrome P450 2C19. Moreover, the IC50 entry (against Cytochrome P450 2C9; against Cytochrome P450 2D6; on Cytochrome P450 2E1; against Estrogen receptor beta; in data set [8]) was “Not Active” each time. The Ki result (in [4]; at Cytochrome P450 1A2; at Cytochrome P450 2C19; at Cytochrome P450 2C9; at Cytochrome P450 2D6; on Cytochrome P450 2E1) was “Not Active” each time. The Ki result in data set [8] is on record as “Not Active”.

For the compound `c1ccc2[nH]c(-c3cscn3)nc2c1` [THIABENDAZOLE], the IC50 result (in [1]; on Calcitonin receptor; in data set [2]; in [3]; on D(3) dopamine receptor; in data set [4]) was “Not Active” throughout. For the same compound, the IC50 entry (against Melanocortin receptor 3; in [5]; in data set [6]; in [7]; at Cytochrome P450 2C19; at Cytochrome P450 2C9) was “Not Active” each time. The IC50 result (at Cytochrome P450 2D6; at Cytochrome P450 2E1; against Estrogen receptor beta; in [8]) was “Not Active” throughout. Moreover, the Ki entry (in [4]; on Cytochrome P450 2C19; on Cytochrome P450 2C9; on Cytochrome P450 2D6; at Cytochrome P450 2E1; in data set [8]) was “Not Active” each time.
